pIC50: −log10 of the molar value. Blank lines part the entries; values can stand above or below the compound they belong to. The source made the active and inactive calls. No cut-off for these calls is given here.
Experiments:
Mus musculus [1] = experiment: Antiinflammatory activity in CD-1 mouse assessed as inhibition of TPA-induced ear edema at 0.1 to 1.0 uM applied topically 10 mins before compound challenge measured after 4 hrs; assay type: functional, organism-based
SK-LU-1 = experiment: Cytotoxicity against human SKLU1 cells after 48 hrs by SRB assay; assay type: functional, cell-based; details: SK-LU-1, 48 h
U-251 = experiment: Cytotoxicity against human U251 cells after 48 hrs by SRB assay; assay type: functional, cell-based; details: U-251, 48 h
Mus musculus [2] = experiment: Antiinflammatory activity in CD-1 mouse assessed as inhibition of TPA-induced ear edema applied topically 10 mins before compound challenge measured after 4 hrs; assay type: functional, organism-based; details: CD-1, Ear

SMILES: COc1ccc2c(c1)c(CC(=O)O)c(C)n2C(=O)c1ccc(Cl)cc1
inhibition (Mus musculus [1]): Active

SMILES: C[C@]12C[C@H](c3ccoc3)OC(=O)[C@@H]1[C@H](O)C[C@@]13COC(=O)C1=CC[C@H]1O[C@]132 [TEHUANINE F]
pIC50 (SK-LU-1): 4.41 | pIC50 (U-251): 4.38

IC50 (Mus musculus [2]): 0.24 µmol/ear
SMILES: C[C@]12C[C@H](c3ccoc3)OC(=O)[C@@]1(O)CC[C@@]13COC(=O)C1=CC[C@H]1O[C@]132 [TEHUANINE G]

Source: ChEMBL document CHEMBL2046426, “Neo-clerodane diterpenes from Salvia herbacea” (J Nat Prod, 2012)
